Like-named read-outs stand apart in the source and are kept apart here.

Usually IC50 stands for the concentration that gives 50% inhibition.

For one assay, the target named is EV-D68 2A^pro (Enterovirus D68, UniProt A0A097BW19). As to the kind of experiment: FRET-based enzymatic assay of EV-D68 2Apro inhibition. The class given is biochemical. The conditions noted are these: for IC50: read-out: Enzymatic inhibitory activity IC50. The procedure: (§1) Protein expression and purification. EV-D68 2A^pro gene from strain US/KY/14-18953 was ordered from Genscript (Piscataway, NJ) in pET28b(+) vector with E. coli codon optimization. 2A^pro gene was subcloned into pE-SUMOstar vector according to the manufacturers protocol. Plasmid encoding WT-2A^pro was transformed into BL21(DE3) competent E. coli cells, and a single colony was picked and used to inoculate 10 mL of L.B. grown supplemented with 50 μg/mL kanamycin at 37° C. at 250 rpm. The 10 mL inoculant was added to 1 L of L.B. with 50 μg/mL kanamycin and grown to an OD600 of 0.8-1.0, cooled to 18° C., then induced using 0.5 mM IPTG. Induced cultures were incubated at 18° C. for an additional 24 h, then harvested and resuspended in lysis buffer (25 mM Tris (pH 7.5); 750 mM NaCl, 2 mM DTT with 0.5 mg/mL lysozyme, 0.5 mM PMSF and 0.02 mg/mL DNase I) and lysed with alternating sonication and French press cycles. The cell debris were removed by centrifugation at 12,000×g for 45 min […]. The supernatant was incubated with Ni-NTA resin for over 2 h at 4° C. on a rotator. The Ni-NTA resin was thoroughly washed with 50 mM imidazole in wash buffer (50 mM Tris (pH 7.5), 150 mM NaCl, and 2 mM DTT); for the SUMO-tagged protein, the protein was directly eluted with 300 mM imidazole; for the nontagged 2A^pro Ni-NTA resin was treated with SUMO Protease 1 to remove the SUMO tag, then 2A^pro was washed off from the column with 10 mM imidazole in wash buffer. The imidazole was removed via dialysis or 10 K molecular weight cut-off centrifugal concentrator spin column. The purity of the protein was confirmed with SDS-PAGE. The protein concentration was determined by classic BCA assay using bovine serum albumin as a standard. EV-D68 3C^pro in pET28b(+) vector was expressed as previously described^10.
(§2) Peptide synthesis. The FRET substrate of EV-D68 2A^pro, Dabcyl-KIRIVNT/GPGFGGE-Edans, was synthesized using the Fmoc solid phase synthesis strategy.
(§3) Enzymatic assays. The reaction buffer contains 50 mM Tris (pH7.0), 150 mM NaCl, 10% Glycerol, and 2 mM DTT, and the reaction was carried out at 30° C. in Cytation 5 imaging reader (Fisher Scientific) with EX360/40-EM460/40 filter. Reactions were monitored every 90 sec. […] The reaction was initiated by adding 20 μM of FRET substrate, and the reaction was monitored for 2 hours and initial velocity was calculated for the first 30 minutes via linear regression.

The next assay concerns EV-D68 US/MO/14-18947. Briefly: CPE assay (neutral red) with EV-D68 US/MO/14-18947 in R.D. cells. The format is cell-based, Enterovirus D68. The procedure: Cell lines and viruses. Human rhabdomyosarcoma (R.D., ATCC, CCL-136) cells were maintained at 37° C. in a 5% CO2 atmosphere and cultured in Dulbecco's modified Eagle's medium (DMEM) supplemented with 10% fetal bovine serum (FBS) and 1% penicillin-streptomycin antibiotics. The following reagents were obtained through BEI Resources, NIAID, NIH: Human Enterovirus D68, US/MO/14-18949, NR-49130; Enterovirus D68, US/MO/14-18947, NR-49129; Enterovirus D68, US/IL/14-18952, NR-49131; Enterovirus D68, US/KY/14-18953, NR-49132; Enterovirus D68, US/IL/14-18956, NR-49133.
Antiviral assays. Cells for antiviral assays were seeded and grown overnight at 37° C. in a 5% CO2 atmosphere for ˜90% confluency the next day. For all infections, cells were washed with PBS containing magnesium and calcium and infected with virus diluted in DMEM with 2% FBS and 30 mM MgCl2. Viruses were incubated for at least 1 h at 33° C. in a 5% CO2 atmosphere, followed by the addition of compound as well as 1% penicillin-streptomycin. For CC50 measurements, the experiment was performed similarly but excluded viral infection. For cytopathic effect (CPE) assays, cells were stained with 66 µg/mL neutral red for 2 h and neutral red uptake was measured at absorbance 540 nm using a Multiskan FC Microplate Photometer (ThermoFisher Scientific). The EC50 and CC50 values were calculated from best-fit dose response curves using GraphPad Prism. For plaque reduction assays, an 1.2% avicel microcrystalline cellulose (FMC BioPolymer, Philadelphia, PA) overlay was used and cells were stained after 3 days as previously described^26.

Assay [1] addresses T1, EV-D68 2A^pro (WT-2A^pro, strain US/KY/14-18953, expressed in E. coli BL21(DE3) from pE-SUMOstar vector) (enterovirus D68, UniProt A0A097BW19).
T1 construct: E. coli-codon-optimised gene, pE-SUMOstar, His-SUMO tag (removed with SUMO protease for nontagged form), E. coli BL21(DE3), Ni-NTA; 7JRE is the C107A mutant
Briefly: FRET-based enzymatic assay of EV-D68 2A^pro inhibition (FRET substrate Dabcyl-KIRIVNT/GPGFGGE-Edans). The class given is biochemical. The procedure:
FIG. 4. […] Key structural variations compared to telaprevir were highlighted in red. Enzymatic inhibitory activity IC50 value was determined in the FRET-based assay. Antiviral EC50 value was determined in the CPE assay with EV-D68 US/MO/14-18947 in R.D. cells. Cytotoxicity CC50 value was determined using the neutral red uptake method in R.D. cells. The results are the mean±standard deviation of two independent experiments with three repeats in each experiment.
FIG. 5. […] Key structural variations compared to Jun8861 were highlighted in red. Enzymatic inhibitory activity IC50 value was determined in the FRET-based assay. Antiviral EC50 value was determined in the CPE assay with EV-D68 US/MO/14-18947 in R.D. cells. Cytotoxicity CC50 value was determined using the neutral red uptake method in R.D. cells. The results are the mean±standard deviation of two independent experiments with three repeats in each experiment.
as §1, §2, §3

Setting [2] is: CPE assay, EV-D68 US/MO/14-18947 in R.D. cells.
Where [3] appears, read: Enterovirus D, EVD68, RD, read-out: Antiviral EC50, CPE assay, EV-D68 US/MO/14-18947 in R.D. cells.

On to `CC(C)(C)[C@H](NC(=O)CC12CC3CC(CC(C3)C1)C2)C(=O)N1C[C@@H]2CCC[C@@H]2[C@H]1C(=O)N[C@@H](Cc1c[nH]c2ccccc12)C(=O)C(=O)NC1CC1` [Jun11862, (1S,3aR,6aS)-2-((S)-2-(2-((3S,5S,7S)-adamantan-1-yl)acetamido)-3,3-dimethylbutanoyl)-N—((S)-4-(cyclopropylamino)-1-(1H-indol-3-yl)-3,4-dioxobutan-2-yl)octahydrocyclopenta[c]pyrrole-1-carboxamide], for which the “enzymatic inhibition, in words, relative to the named comparator” value at EV-D68 2A^pro is “comparable enzymatic inhibition and antiviral activity as Jun11385”. In addition, in the assay on EV-D68 US/MO/14-18947 (setting [2]), the “antiviral activity, in words, relative to the named comparator” value is “comparable enzymatic inhibition and antiviral activity as Jun11385”.
On to `CC(C)[C@H](NC(=O)[C@@H]1[C@H]2CCC[C@H]2CN1C(=O)[C@@H](NC(=O)CC12CC3CC(CC(C3)C1)C2)C(C)(C)C)C(=O)C(=O)NC1CC1` [Jun11718, (1S,3aR,6aS)-2-((S)-2-(2-((3S,5S,7S)-adamantan-1-yl)acetamido)-3,3-dimethylbutanoyl)-N—((S)-1-(cyclopropylamino)-4-methyl-1,2-dioxopentan-3-yl)octahydrocyclopenta[c]pyrrole-1-carboxamide], for which, at EV-D68 2A^pro, the “enzymatic inhibition, in words, relative to the named comparator” value was “comparable enzymatic inhibition and antiviral activity as Jun8861”. Besides, in the assay with EV-D68 US/MO/14-18947 (setting [2]), the “antiviral activity, in words, relative to the named comparator” value was “comparable enzymatic inhibition and antiviral activity as Jun8861”.
As for `CCC[C@H](NC(=O)[C@@H]1[C@H]2CCC[C@H]2CN1C(=O)[C@@H](NC(=O)NC(C)(C)C)C(C)(C)C)C(=O)C(=O)NC1CC1` [Jun9475, (1S,3aR,6aS)-2-((S)-2-(3-(tert-butyl)ureido)-3,3-dimethylbutanoyl)-N—((S)-1-(cyclopropylamino)-1,2-dioxohexan-3-yl)octahydrocyclopenta[c]pyrrole-1-carboxamide], the IC50 at EV-D68 2A^pro came out at 1.16 µM.
The compound `CCC[C@H](NC(=O)[C@@H]1[C@H]2CCC[C@H]2CN1C(=O)[C@@H](NC(=O)[C@@H](NC(=O)OCc1ccccc1)C1CCCCC1)C(C)(C)C)C(=O)C(=O)NC1CC1` [Jun7453, Benzyl ((S)-1-cyclohexyl-2-(((S)-1-((1S,3aR,6aS)-1-(((S)-1-(cyclopropylamino)-1,2-dioxohexan-3-yl)carbamoyl)hexahydrocyclopenta[c]pyrrol-2(1H)-yl)-3,3-dimethyl-1-oxobutan-2-yl)amino)-2-oxoethyl)carbamate] gave a concentration for half-maximal inhibition (IC50) in assay [1] of 0.36 ± 0.02 µM. In the assay with EV-D68 US/MO/14-18947 (setting [3]), the EC50 turned out to be 0.63 µM.
For the compound “(1S)-2-((S)-2-(2-((3S,5S,7S)-adamantan-1-yl)acetamido)-3,3-dimethylbutanoyl)-N-((2S)-4-(cyclopropylamino)-3-hydroxy-4-oxo-1-(thiophen-3-yl)butan-2 yl)octahydrocyclopenta[c]pyrrole-1-carboxamide [Jun11818]”, on EV-D68 2A^pro, the “enzymatic inhibition, in words, relative to the named comparator” value is “comparable enzymatic inhibition and antiviral activity as Jun11385”. Moreover, the “antiviral activity, in words, relative to the named comparator” value in the assay with EV-D68 US/MO/14-18947 (setting [2]) was “comparable enzymatic inhibition and antiviral activity as Jun11385”.
Turning to `CCC[C@H](NC(=O)[C@@H]1[C@H]2CCC[C@H]2CN1C(=O)[C@@H](NC(=O)NC12CC3CC(CC(C3)C1)C2)C(C)(C)C)C(=O)C(=O)NC1CC1` [Jun1023, (1S)-2-((S)-2-(3-((3R,5R,7R)-adamantan-1-yl)ureido)-3,3-dimethylbutanoyl)-N—((S)-1-(cyclopropylamino)-1,2-dioxohexan-3-yl)octahydrocyclopenta[c]pyrrole-1-carboxamide], on EV-D68 2A^pro, the “enzymatic inhibition, in words, relative to the named comparator” value is “reduced enzymatic inhibition”. Also, the EC50 with EV-D68 US/MO/14-18947 (CPE assay, EV-D68 US/MO/14-18947 in R.D. cells, read-out: Antiviral EC50) worked out at 0.7 µM.
For the compound `CCC[C@H](NC(=O)[C@@H]1[C@H]2CCC[C@H]2CN1C(=O)[C@@H](NC(C)=O)C(C)(C)C)C(=O)C(=O)NC1CC1` [Jun8862, (1S,3aR,6aS)-2-((S)-2-acetamido-3,3-dimethylbutanoyl)-N—((S)-1-(cyclopropylamino)-1,2-dioxohexan-3-yl)octahydrocyclopenta[c]pyrrole-1-carboxamide], the IC50 on EV-D68 2A^pro is 0.94 µM.
In assay [1], `CC(C)C[C@H](NC(=O)[C@@H]1[C@H]2CCC[C@H]2CN1C(=O)[C@@H](NC(=O)CC12CC3CC(CC(C3)C1)C2)C(C)(C)C)C(=O)C(=O)NC1CC1` [Jun11389, (1S,3aR,6aS)-2-((S)-2-(2-((3S,5S,7S)-adamantan-1-yl)acetamido)-3,3-dimethyl-butanoyl)-N—((S)-1-(cyclopropylamino)-5-methyl-1,2-dioxohexan-3-yl)octahydro-cyclopenta[c]pyrrole-1-carboxamide] displayed an IC50 of 0.26 ± 0.05 µM. Besides, the “antiviral activity, in words, relative to the named comparator” value with EV-D68 US/MO/14-18947 (setting [2]) is on record as “failed to improve the antiviral potency compared to Jun8861”.
Take `CCC[C@H](NC(=O)[C@@H]1[C@H]2CCC[C@H]2CN1C(=O)OCc1ccccc1)C(=O)C(=O)NC1CC1` [Jun7424, Benzyl (1S,3aR,6aS)-1-(((S)-1-(cyclopropylamino)-1,2-dioxohexan-3-yl)carbamoyl)hexahydrocyclopenta[c]pyrrole-2(1H)-carboxylate]: the IC50 at EV-D68 2A^pro is 4.35 µM.
Consider `CC(C)(C)C(NC(=O)CC12CC3CC(CC(C3)C1)C2)C(=O)N1CC2CCCC2C1C(=O)NC(Cc1ccc(F)cc1)C(=O)C(=O)NC1CC1` [Jun11763, (1S,3aR,6aS)-2-((S)-2-(2-((3S,5S,7S)-adamantan-1-yl)acetamido)-3,3-dimethylbutanoyl)-N—((S)-4-(cyclopropylamino)-1-(4-fluorophenyl)-3,4-dioxobutan-2-yl)octahydrocyclo-penta[c]pyrrole-1-carboxamide], for which, at EV-D68 2A^pro, the IC50 is 0.15 µM. For the same compound, the EC50 in the assay on EV-D68 US/MO/14-18947 (setting [3]) amounted to 0.19 µM.

Source of the values: US20250051283A1, “THERAPEUTIC COMPOUNDS AND METHODS” (priority 2023, published 2025).
